This note sets out measurements from patent publication US8927576B2, “HCV inhibitor and therapeutic agent combinations” (PTC Therpeutics, Inc., priority 2009, dated 2015).

The test system of this experiment is HCV replicon (replicon cells). Put plainly: Replicon response to antiviral agent(s): luciferase replicon inhibition, combination of HCV inhibitor and therapeutic agent. As to conditions: in combination with Cpd 661; range over the combination ratios (Cpd 661:agent) tested; replicon cells treated three days; luciferase (Bright Glo). Type of experiment: cell-based. On the procedure:
Replicon cells were seeded at 5000 cells/well in 96-well plates and were treated with a HCV inhibitor and/or a HCV therapeutic agent for three days. The growth medium consisted of a final concentration of 0.5% DMSO and 10% fetal bovine serum.
The HCV therapeutic agents, an interferon-α, a NS5b HCV polymerase inhibitor Compound 1p and a NS3/NS4a HCV protease inhibitor Compound 2p in the compound treatment samples were each serially diluted to the concentration ratios indicated in Table 1. Replicon cells in the untreated control were not treated with a HCV inhibitor or therapeutic agent. To each concentration of therapeutic agent, the HCV inhibitor Compound 661 was titrated. After three days, Bright Glo agent was used to detect luciferase activity. The activity of the medium without cells was measured as the background control. Replicon inhibition was calculated using the following formula: […]
A general note: A replicon is a self-replicating genome or part of one, used to study replication in cells.
Regarding `CC(C)CCn1c(=O)c(C2=Nc3ccccc3S(=O)(=O)N2)c(O)c2ccccc21` [Cpd 1p, 3-(1,1-dioxido-2H-1,2,4-benzothiadiazin-3-yl)-4-hydroxy-1-(3-methylbutyl)quinolin-2(1H)-one], the “Combination Index IC50” value is on record as 0.19-0.94, the “Combination Index IC75” value is given as 0.13-0.61 and the “Combination Index IC90” value is 0.09-0.4.
Taken in the same sequence, the figures for `C=C[C@H]1C[C@@]1(NC(=O)[C@@H]1C[C@@H](Oc2cc(-c3ccccc3)nc3cc(OC)ccc23)CN1C(=O)[C@@H](NC(=O)OC(C)(C)C)C(C)(C)C)C(=O)NS(=O)(=O)C1CC1` [Cpd 2p, N-(tert-butoxycarbonyl)-3-methyl-L-valyl-(4R)-N-{(1S,2R)-1-[(cyclopropylsulfonyl)carbamoyl]-2-ethenylcyclopropyl}-4-[(7-methoxy-2-phenylquinolin-4-yl)oxy]-L-prolinamide] were 0.26-0.91, 0.27-0.66 and 0.29-0.48.
As for interferon-α, the “Combination Index IC50” value is recorded as 0.36-0.84, the “Combination Index IC75” value was 0.42-0.78 and the “Combination Index IC90” value was 0.35-0.72.
